Tests used:
[1] = biological target: T1, TrkA (Homo sapiens (Human), UniProt P04629); test: TrkA kinase-inhibiting activity using human TrkA expressing cells (CellSenser TrkA-NFAT-bla CHO-K1, NGF-stimulated reporter assay); type: cell-based; details: CHO-K1 cells expressing human TrkA and NFAT-bla; NGF 50 ng/ml; read-out: TrkA inhibitory activity (IC50; μM)
Procedure: TrkA kinase-inhibiting activity in cell systems was measured using CHO-K1 cells expressing human TrkA and NFAT-bla (CellSenser™ TrkA-NFAT-bla CHO-K1 cells, Invitrogen).
On the day before the assay, CellSenser™ TrkA-NFAT-bla CHO-K1 cells were suspended in an assay medium (Opti-MEM1 Reduced Serum Medium (Invitrogen) containing 0.5% dialysed fetal bovine serum (Invitrogen), 0.1 mM nonessential amino acids (Invitrogen), 1 mM sodium pyruvate (Invitrogen) and antibiotics (100 U/mL penicillin and 100 μg/mL streptomycin (Invitrogen)) and plated at a density of 2.4×10^4 cells/40 μL/well in a 96-well clear bottom plate (Corning, Catalogue No.: 3882). In some wells were added only the assay medium at 40 μL/well (Cell-free). On the day of the assay, 10 mM of the present compound (DMSO solution) was distributed in a 96-well plate (Costar, Catalogue No.: 3363) and serially diluted with DMSO with the geometrical ratio of 3. The serial dilutions were diluted with the assay medium to 100-fold to prepare a solution of the present compound with a 10-times concentration (DMSO concentration: 1%). To the plate where cells were plated was added the present compound at 5 μL/well and the plate was incubated in a CO2 incubator with 5% CO2, 95% Air at 37° C. for 30 minutes. For a control and a blank, the assay medium containing 1% DMSO was added at 5 μL/well in place of the solution of the present compound. Subsequently the assay medium containing NGF (Mouse 2.5s, Natural, Invitrogen) was added to the plate at 5 µL/well (final concentration of NGF: 50 ng/ml) and the plate was incubated in a CO2 incubator with 5% CO2, 95% Air at 37° C. for 5 hours. For a group of blanks, the assay medium was added in place of NGF at 5 μL/well. A reporter assay detection reagent (10 μL/well) was added to the plate and the plate was then incubated in the dark at room temperature for 120 minutes. The reporter assay detection reagent was prepared from LiveBLAzer™-FRET B/G Loading Kit (Invitrogen). On an Analyst GT (Molecular Devices Japan, K.K.) the wells were irradiated with excitation light at 405 nm and the fluorescence intensities at 460 nm and 530 nm were measured. The time resolved fluorescence resonance energy transfer (TR-FRET) ratio of each well was calculated according to the following Equation 2. TR-FRET Ratio=(A460X−A460F)/(A530X−A530F) Equation 2
wherein A460X: the fluorescence intensity at 460 nm of the present compound, control or blank;
A460F: the fluorescence intensity at 460 nm of the Cell-free;
A530X: the fluorescence intensity at 530 nm of the present compound, control or blank; and
A530F: the fluorescence intensity at 530 nm of the Cell-free. […]
The IC50 value of the present compound was calculated from the inhibition curve based on the inhibition rate of the present compound at respective concentrations.

[2] = biological target: T1, TrkA; test: Measurement of TrkA enzyme-inhibiting activity (LanthaScreen TR-FRET kinase assay); type: biochemical; details: final ATP 150 μM, read-out: TrkA inhibitory activity (IC50; μM)
Procedure: TrkA-inhibiting activity was measured according to the following method using LanthaScreen™ kinase assay reagents (Invitrogen; Fluorescein-Poly GT, LanthaScreen™ Tb-PY20 and TR-FRET Dilution Buffer), TrkA (Invitrogen), ATP (Sigma-Aldrich), a kinase reaction buffer (50 mM HEPES buffer (Sigma-Aldrich) (pH 7.5) containing 0.01% Brij35 (Sigma-Aldrich), 10 mM MgCl2 (Sigma-Aldrich) and 1 mM EGTA (Sigma-Aldrich)) and 0.5 M EDTA (pH 8.0) (Invitrogen).
The present compound was dissolved in dimethylsulfoxide (hereinafter abbreviated as DMSO) to prepare a 10 mM solution. The test compound at 10 mM was distributed into a 96-well plate and serially diluted with DMSO with the geometrical ratio of 3. The serial dilutions (DMSO solutions) were diluted with the kinase reaction buffer to 20-fold to prepare solutions of the present compound with 5-times concentrations (DMSO concentration: 5%). TrkA was diluted with the kinase reaction buffer to prepare a solution at 38.5 ng/mL (enzyme solution). Adenosine triphosphate (hereinafter abbreviated as ATP) was preliminarily diluted in distilled water to prepare a 10 mM solution which was then divided into containers and stored at −20° C. The 10 mM ATP solution and Fluorescein-Poly GT were diluted in the kinase reaction buffer to prepare a solution containing […] of ATP and 500 nM of Fluorescein-Poly GT (ATP-substrate solution). EDTA (0.5 M; pH 8.0) and LanthaScreen™ Tb-PY20 were diluted in the TR-FRET Dilution Buffer to prepare a solution containing 20 mM of EDTA and 4 nM of LanthaScreen™ Tb-PY20 (detection buffer).
The solutions of the present compound (5 μL/well) and the enzyme solution (10 μL/well) were added to a 96-half well assay plate and the plate was shaken at room temperature for 10 minutes on a plate shaker (IKA™ MTS2/4 digital microplate, IKA Japan K.K.). As a control and a blank, the kinase reaction buffer containing 5% DMSO (5 μL/well) was added in place of the solution of the present compound. As a blank, the kinase reaction buffer (10 μL/well) was added in the place of the enzyme solution. The ATP-substrate solution (10 μL/well) was then added to the plate to initiate kinase reaction and the plate was shaken in the dark at room temperature for 1 hour on the plate shaker (final concentration of TrkA: 15.4 ng/mL, final concentration of the substrate: 200 nM and final concentration of ATP: 150 μM). Kinase reaction was terminated by adding the detection buffer (25 μL/well) to the plate and the plate was shaken in the dark at room temperature for 30 minutes on the plate shaker. On an Analyst GT (Molecular Devices Japan, K.K.) the wells were irradiated with excitation light at 340 nm and the fluorescence intensities at 520 nm and 495 nm were measured. The fluorescence intensity at 520 nm for each well was divided by the fluorescence intensity at 495 nm to calculate the time resolved fluorescence resonance energy transfer (TR-FRET) ratio.
The inhibition rate (%) of the present compound was calculated according to the following Equation 1: Inhibition rate (%)={1−(AX−AB)/(AC−AB)×100 Equation 1
wherein AX: the TR-FRET ratio when the present compound is added;
AB: the TR-FRET of the blank; and
AC: the TR-FRET of the control.
The value for 50% inhibition by the present compound (IC50 value) was calculated from the inhibition curve based on the inhibition rate of the present compound at respective concentrations.

T1 sequence (P04629 33-796): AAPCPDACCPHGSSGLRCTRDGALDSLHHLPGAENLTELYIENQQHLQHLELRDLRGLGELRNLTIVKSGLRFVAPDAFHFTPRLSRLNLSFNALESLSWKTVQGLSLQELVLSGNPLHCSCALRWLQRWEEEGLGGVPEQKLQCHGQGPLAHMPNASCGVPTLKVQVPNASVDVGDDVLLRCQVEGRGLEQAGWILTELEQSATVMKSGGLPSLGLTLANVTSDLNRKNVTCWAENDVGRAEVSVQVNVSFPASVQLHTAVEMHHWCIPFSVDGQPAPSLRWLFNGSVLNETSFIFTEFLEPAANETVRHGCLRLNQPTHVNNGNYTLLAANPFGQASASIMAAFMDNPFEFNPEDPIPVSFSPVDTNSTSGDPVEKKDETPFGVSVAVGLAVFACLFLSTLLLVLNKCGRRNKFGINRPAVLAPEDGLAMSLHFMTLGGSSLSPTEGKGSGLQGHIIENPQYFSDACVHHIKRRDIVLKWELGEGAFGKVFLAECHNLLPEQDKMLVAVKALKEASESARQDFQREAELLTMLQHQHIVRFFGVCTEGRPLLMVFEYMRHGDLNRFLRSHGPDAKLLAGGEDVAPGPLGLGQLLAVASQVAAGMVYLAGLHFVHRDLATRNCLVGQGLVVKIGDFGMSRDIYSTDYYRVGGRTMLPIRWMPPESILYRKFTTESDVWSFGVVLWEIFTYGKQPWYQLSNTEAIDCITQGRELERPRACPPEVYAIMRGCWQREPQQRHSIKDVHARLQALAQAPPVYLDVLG

Which IC50 [1] does the source give for `Cc1ccccc1-n1nc(C(C)(F)F)cc1NC(=O)Nc1cnc(Oc2ccc(-c3cnc(N4CCCC4=O)s3)cc2)nc1` [Example 72-3, 1-[3-(1,1-difluoroethyl)-1-(2-methylphenyl)-1H-pyrazol-5-yl]-3-(2-{4-[2-(2-oxo-1-pyrrolidinyl)-1,3-thiazol-5-yl]phenoxy}-5-pyrimidinyl)urea] here?
Its IC50 is 0.018 µM.

What about the IC50 [2] of the same molecule?
The IC50 was 0.06 µM.

For `COC(=O)c1cccc(-n2nc(C(C)(C)C)cc2NC(=O)Nc2cnc(Oc3ccc(-c4cnc(N5CCCC5=O)s4)cc3)nc2)c1` [Example 66-27, Methyl 3-[3-(2-methyl-2-propanyl)-5-{[(2-{4-[2-(2-oxo-1-pyrrolidinyl)-1,3-thiazol-5-yl]phenoxy}-5-pyrimidinyl)carbamoyl]amino}-1H-pyrazol-1-yl]benzoate], which IC50 [1] is on record?
Its IC50 is 0.01 µM.

What about the IC50 [2] of the same molecule?
The IC50 was 0.13 µM.

Which IC50 [1] does the source give for `O=C(Nc1cnc(Oc2ccc(-c3cnc(N4CCCCC4=O)s3)cc2)nc1)Nc1cc(C(F)(F)F)cnc1-c1ccc(C(F)(F)F)nc1` [Example 9, 1-[5,6′-bis(trifluoromethyl)-2,3′-bipyridin-3-yl]-3-(2-{4-[2-(2-oxo-1-piperidinyl)-1,3-thiazol-5-yl]phenoxy}-5-pyrimidinyl)urea] here?
Its IC50 is 0.093 µM.

And the IC50 [2]?
The IC50 was 0.16 µM.

Which IC50 [1] does the source give for `O=C(Nc1cnc(Oc2ccc(-c3cnc(N4CCCC4=O)s3)cc2)nc1)Nc1cc(C(F)(F)F)cnc1-c1ccc(C(F)(F)F)nc1` [Example 50, 1-[5,6′-bis(trifluoromethyl)-2,3′-bipyridin-3-yl]-3-(2-{4-[2-(2-oxo-1-pyrrolidinyl)-1,3-thiazol-5-yl]phenoxy}-5-pyrimidinyl)urea] here?
Its IC50 is 0.012 µM.

And the IC50 [2]?
Its IC50 is 0.04 µM.

How did the IC50 [1] turn out when `Cn1ncc2cc(-n3nc(C(C)(C)C)cc3NC(=O)Nc3cnc(Oc4ccc(-c5cnc(N6CCCC6=O)s5)cc4)nc3)ccc21` [Example 71, 1-[1-(1-methyl-1H-indazol-5-yl)-3-(2-methyl-2-propanyl)-1H-pyrazol-5-yl]-3-(2-{4-[2-(2-oxo-1-pyrrolidinyl)-1,3-thiazol-5-yl]phenoxy}-5-pyrimidinyl)urea] was run?
Its IC50 is 0.002 µM.

What about the IC50 [2] of the same molecule?
Its IC50 is 0.03 µM.

`O=C(Nc1cnc(Oc2ccc(-c3cnc(N4CCCC4=O)s3)cc2)nc1)Nc1cc(C2CC2)nn1-c1ccccc1` [Example 72-7, 1-(3-cyclopropyl-1-phenyl-1H-pyrazol-5-yl)-3-(2-{4-[2-(2-oxo-1-pyrrolidinyl)-1,3-thiazol-5-yl]phenoxy}-5-pyrimidinyl)urea] was tested. Which IC50 [1] did it give?
The IC50 was 0.033 µM.

And the IC50 [2]?
The IC50 was 0.03 µM.

Which results are given for `Cc1ccccc1-n1nc(C(F)(F)F)cc1NC(=O)Nc1cnc(Oc2ccc(-c3cnc(N4CCCC4=O)s3)cc2)nc1` [Example 72-1, 1-[1-(2-methylphenyl)-3-(trifluoromethyl)-1H-pyrazol-5-yl]-3-(2-{4-[2-(2-oxo-1-pyrrolidinyl)-1,3-thiazol-5-yl]phenoxy}-5-pyrimidinyl)urea]?
IC50 [1]: 0.011 µM; IC50 [2]: 0.05 µM

With `CC(C)c1ncc(C(F)(F)F)cc1NC(=O)Nc1cnc(Oc2ccc(-c3cnc(N4CCCC4=O)s3)cc2)nc1` [Example 84-41, 1-[2-isopropyl-5-(trifluoromethyl)-3-pyridinyl]-3-(2-{4-[2-(2-oxo-1-pyrrolidinyl)-1,3-thiazol-5-yl]phenoxy}-5-pyrimidinyl)urea] as the molecule, how does the IC50 [2] read?
Its IC50 is 0.09 µM.

What does the source list for `Cc1ccc(-c2ncc(C(F)(F)F)cc2NC(=O)Nc2cnc(Oc3ccc(-c4cnc(N5CCCCCC5=O)s4)cc3)nc2)cc1C` [Example 59, 1-[2-(3,4-dimethylphenyl)-5-(trifluoromethyl)-3-pyridinyl]-3-(2-{4-[2-(2-oxo-1-azepanyl)-1,3-thiazol-5-yl]phenoxy}-5-pyrimidinyl)urea]?
IC50 [1]: 0.07 µM; IC50 [2]: 0.19 µM

Which IC50 [1] does the source give for `Cc1ccc(-n2nc(C(C)(C)C)cc2NC(=O)Nc2cnc(Oc3ccc(-c4cnc(N5CCCC5=O)s4)cc3)nc2)cc1C` [Example 65-1, 1-[1-(3,4-dimethylphenyl)-3-(2-methyl-2-propanyl)-1H-pyrazol-5-yl]-3-(2-{4-[2-(2-oxo-1-pyrrolidinyl)-1,3-thiazol-5-yl]phenoxy}-5-pyrimidinyl)urea] here?
Its IC50 is 0.002 µM.

What about the IC50 [2] of the same molecule?
Its IC50 is 0.08 µM.

With `CC(C)(C)c1cc(NC(=O)Nc2cnc(Oc3ccc(-c4cnc(N5CCCC5=O)s4)cc3)nc2)n(-c2ccc3c(c2)CCO3)n1` [Example 66-19, 1-[1-(2,3-dihydro-1-benzofuran-5-yl)-3-(2-methyl-2-propanyl)-1H-pyrazol-5-yl]-3-(2-{4-[2-(2-oxo-1-pyrrolidinyl)-1,3-thiazol-5-yl]phenoxy}-5-pyrimidinyl)urea] as the molecule, how does the IC50 [1] read?
The IC50 was 0.004 µM.

And the IC50 [2]?
The IC50 was 0.02 µM.

What does the source list for `CC(C)(C)c1cc(NC(=O)Nc2cnc(Oc3ccc(-c4cnc(N5CCCC5=O)s4)cc3)nc2)n(-c2ccc(S(N)(=O)=O)cc2)n1` [Example 66-72, 4-[3-(2-methyl-2-propanyl)-5-{[(2-{4-[2-(2-oxo-1-pyrrolidinyl)-1,3-thiazol-5-yl]phenoxy}-5-pyrimidinyl)carbamoyl]amino}-1H-pyrazol-1-yl]benzenesulfonamide]?
IC50 [1]: 0.032 µM; IC50 [2]: 0.05 µM

Which results are given for `CC(=O)Nc1ccc(-n2nc(C(C)(C)C)cc2NC(=O)Nc2cnc(Oc3ccc(-c4cnc(N5CCCC5=O)s4)cc3)nc2)cc1` [Example 66-28, N-{4-[3-(2-methyl-2-propanyl)-5-{[(2-{4-[2-(2-oxo-1-pyrrolidinyl)-1,3-thiazol-5-yl]phenoxy}-5-pyrimidinyl)carbamoyl]amino}-1H-pyrazol-1-yl]phenyl}acetamide]?
IC50 [1]: 0.014 µM; IC50 [2]: 0.08 µM

With `CC(C)(C)c1cc(NC(=O)Nc2cnc(Oc3ccc(-c4cnc(N5CCCC5=O)s4)cc3)nc2)n(C2CCOCC2)n1` [Example 80-2, 1-[3-(2-methyl-2-propanyl)-1-(tetrahydro-2 H-pyran-4-yl)-1H-pyrazol-5-yl]-3-(2-{4-[2-(2-oxo-1-pyrrolidinyl)-1,3-thiazol-5-yl]phenoxy}-5-pyrimidinyl)urea] as the molecule, how does the IC50 [2] read?
Its IC50 is 0.07 µM.

— patent US9242977B2, “Trk-inhibiting compound” (ONO PHARMACEUTICAL CO., LTD., priority 2012, dated 2016)
